Laboratory results published in patent US8716180B2 (priority 2005, dated 2014).

Test system: deoxynivalenol (DON)
Set-up: species or system winter wheat
Conditions: in vivo

## N#Cc1c[nH]cc1-c1cccc2c1OC(F)(F)O2 [Lot B, fludioxonil]
  Amount of DON (deoxynivalenol) in the ear of wheat: 0 ppb
